Data: PubChem BioAssay (NCI)
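Five concentrations, 48 hours, 96-well plates. GI50 = concentration required for 50% inhibition of growth. TGI is the concentration that stops growth completely.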

Legend:
Assay in all cases: NCI tumour cell line growth inhibition, 48 h
[1] = system: SK-MEL-28 melanoma
[2] = system: NCI-H226 lung
[3] = system: SR leukemia
[4] = system: BT-549 breast
[5] = system: NCI/ADR-RES ovarian
[6] = system: SF-539 CNS
[7] = system: UACC-257 melanoma
[8] = system: SF-295 CNS
[9] = system: SK-MEL-2 melanoma
[10] = system: A498 renal

| Compound | GI50 [1] | TGI [1] | GI50 [2] | TGI [2] | GI50 [3] | TGI [3] | GI50 [4] | TGI [4] | GI50 [5] | TGI [5] | GI50 [6] | TGI [6] | GI50 [7] | TGI [7] | GI50 [8] | TGI [8] | GI50 [9] | TGI [9] | GI50 [10] | TGI [10] |
| --- | --- | --- | --- | --- | --- | --- | --- | --- | --- | --- | --- | --- | --- | --- | --- | --- | --- | --- | --- | --- |
| CC(C)N=c1cc2n(-c3ccc(Cl)cc3)c3ccccc3nc-2cc1Nc1ccc(Cl)cc1 | > 50 µM | > 50 µM | 1.43 µM | > 50 µM | 2.48 µM | > 100 µM | 1.47 µM | > 50 µM | 2.3 µM | > 100 µM | > 50 µM | > 50 µM | 2.58 µM | > 50 µM | 1.36 µM | > 50 µM | – | – | – | – |
| Cc1cc2c(cc1Cl)SC(=Nc1ccc(Cl)cc1)N(S(=O)(=O)c1ccccc1)S2(=O)=O | 12.2 µM | 63.5 µM | 11.5 µM | 35.4 µM | 0.342 µM | > 100 µM | 11.1 µM | 24.5 µM | 5.25 µM | 19.3 µM | 1.03 µM | 3.53 µM | 17.4 µM | 34.9 µM | 13.2 µM | 32.6 µM | 11.8 µM | 27.6 µM | – | – |
| O=C(Nc1ccc(CO)cc1)c1coc2ccccc2c1=O | > 100 µM | > 100 µM | > 100 µM | > 100 µM | > 100 µM | > 100 µM | 90.7 µM | > 100 µM | > 100 µM | > 100 µM | > 100 µM | > 100 µM | > 100 µM | > 100 µM | 65.6 µM | > 100 µM | – | – | – | – |
| COc1ccc2ncn(-c3cc(O[C@H](C)c4ccccc4Cl)c(C(N)=O)s3)c2c1 | 0.105 µM | > 25 µM | 0.6 µM | 12.7 µM | 0.012 µM | 1.53 µM | 0.448 µM | 13.3 µM | 0.0107 µM | 2.88 µM | 0.0374 µM | 5.54 µM | 0.444 µM | > 22.7 µM | 0.0189 µM | 7.05 µM | – | – | 0.0441 µM | 0.57 µM |
| COc1ccc2c(c1)[C@@]13CCCC[C@H]1[C@@H](C2)N(C)CC3=O | – | 30 µM | – | 57.9 µM | – | 42 µM | – | 31.4 µM | – | 84.4 µM | – | – | – | 30.5 µM | – | > 100 µM | – | 53.9 µM | – | – |
| O=C(Nc1ccc(-n2cc(-c3ccncc3)c(-c3ccc(Cl)c(O)c3)n2)cc1)Nc1ccc(Cl)c(C(F)(F)F)c1 | 1.63 µM | 3.45 µM | 2.76 µM | 10.8 µM | – | – | 1.2 µM | 2.79 µM | 1.88 µM | 4.83 µM | 1.31 µM | 3.48 µM | 1.51 µM | 3.4 µM | 1.26 µM | 2.86 µM | 1.7 µM | 3.27 µM | 1.63 µM | 9.29 µM |
| O=C(Nc1ccc(-c2ccccc2)cc1)C1CCN(S(=O)(=O)c2ccccc2Cl)CC1 | > 100 µM | > 100 µM | 30.2 µM | > 100 µM | 36.2 µM | > 100 µM | 13.9 µM | 56.3 µM | 37.1 µM | > 100 µM | 12 µM | 37.3 µM | 28.1 µM | > 100 µM | 24.4 µM | > 100 µM | 49.7 µM | > 100 µM | – | – |
| [Au+].[Au+].[Au+].[c-]1nccn1Cc1ccccc1.[c-]1nccn1Cc1ccccc1.[c-]1nccn1Cc1ccccc1 | 2.71 µM | 6.15 µM | 14.6 µM | 71.4 µM | – | – | 5.35 µM | 42.5 µM | 58 µM | > 100 µM | 2.96 µM | 9.15 µM | 3.71 µM | 7.5 µM | 10.5 µM | 40.2 µM | 1.98 µM | 3.9 µM | 16.1 µM | 33.6 µM |
| O=C(CSC(c1ccccc1)c1ccccc1)N/N=C/c1ccc(Cl)cc1Cl | – | – | 32.6 µM | > 100 µM | 17 µM | 38.8 µM | 30 µM | 75.8 µM | 35.3 µM | > 100 µM | 57.7 µM | > 100 µM | 23.1 µM | 68.3 µM | 33.6 µM | 90.8 µM | 18.4 µM | 55.8 µM | 25.6 µM | 52.1 µM |
| COc1cc(C2=C(c3cn(C)c4ccccc34)COC2=O)cc(OC)c1OC | 0.754 µM | 29.8 µM | 1.1 µM | 7.3 µM | 0.0219 µM | > 100 µM | 0.0615 µM | 4.18 µM | 0.0464 µM | 2.07 µM | 0.106 µM | 0.932 µM | – | – | – | – | 0.0562 µM | 18.5 µM | 0.0171 µM | 0.109 µM |
